The results in this text go back to the OPERA property sets (Mansouri et al. 2018).

Take `O=C(CCn1cnc([N+](=O)[O-])n1)N1CCOCC1`: the logP was -0.74. The compound `Clc1cc(Cl)c(Cl)cc1Cl` registered a logP of 4.64. The figure for `CCCCl` is 2.04; for `O=[N+]([O-])c1nccn1CC(F)(F)CO` it is 0.04; for `O=C(O)CCS` it is 0.43. For `Clc1ccccc1-c1ccccc1` the value was 4.53. In turn, `CCCC1(c2ccncc2)CCC(=O)NC1=O` (stereo not given) returned a logP of 1.13. For `CCCN(CCC)C1CCOc2c(O)cccc21` (stereo not given) the value was 3.3; for `COC(=O)c1ccc(-c2ncc([N+](=O)[O-])n2C)cc1`, 1.63. `CCCN(CCC)N=O` returned a logP of 1.36.

As to `Cc1ccc(Cl)cc1Cl`, the logP amounted to 4.24. For `NC(=O)C1CCCN1C(=O)C(Cc1cn(C(=O)OCc2ccccc2)cn1)NC(=O)C1CCC(=O)N1` (stereo not given) the value was -0.11.

For `c1ccc(Cc2ccncc2)cc1`, the logP was 2.62. For `COc1cccc2c1C(=N)c1c(O)c3c(c(O)c1C2=O)CC(O)(C(=O)CO)CC3OC1CC(N2CCOCC2)C(O)C(C)O1` (stereo not given) the value was 1.8; for `CC(C)OC(=O)C(C(=O)OC(C)C)=C1SCCS1=O` (stereo not given), 1.6; for `Cc1cccc2cc[nH]c12`, 2.56.

`CNc1nc(NC)nc(SC(F)F)n1`: the logP was 2.31. For `CNN` the value was -1.05; for `Cn1ccnc1`, -0.06; for `NNC(=O)c1ccnc([N+](=O)[O-])c1`, -0.76. As for `CCc1ccc2ccccc2c1`, the logP came to 4.38. The figure for `CCc1cccc(OCC(=O)O)c1` is 2.25; for `CCCCOc1cccc(O)c1` it is 3.03; for `CN(N=O)C(N)=O` it is -0.03. For `Cn1ccc(=O)[nH]c1=O` the value was -1.2. The figure for `O=C(O)C(c1ccc(Cl)cc1)n1cccc1` (stereo not given) is 2.3; for `c1ccc(-c2ncncn2)cc1` it is 1.93; for `O=C1CC(c2ccc(C(F)(F)F)cc2)Cc2c1c(=O)c1cc(Cl)ccc1n2O` (stereo not given) it is 3.46. In turn, `C#CC(C)OC(=O)Nc1ccc(OCC)c(OCC)c1` (stereo not given) yielded a logP of 2.68. For `Cc1cc(-c2ccccc2)nnc1NCCN1CCOCC1` the value was 2.03. Compound `C=CCNCC=C` returned a lipophilicity (logP) of 1.11.

The compound `CC12CCC(=O)C=C1CCC1C2C(O)CC2(C)C1CCC2(O)C(=O)COC(=O)CCCCCO` (stereo not given) returned a logP of 2.79. For `CON(C)C(=O)Nc1cccc(C(F)(F)F)c1` the value was 2.64. The compound `COP(=O)(OC)OC(Br)C(Cl)(Cl)Br` (stereo not given) came in with a logP of 1.38. For the compound `O=CO`, the logP was -0.54. As to `COC(=O)CNC(=O)c1ccccc1`, the logP was found to be 0.82.

In turn, `C#CC` yielded a logP of 0.94. `O=C1CCCCCCCN1`: the logP stood at 0.67.

`CCCCCc1cc(OC)c(CC(C)N)cc1OC` (stereo not given) gave a logP of 4.43. The figure for `CCOC(=O)C(=Cc1ccc(OC)cc1OC)C(C)=O` is 2.41; for `CCCCCN` it is 1.49. For `CNC(=O)Oc1cc(C)cc(C(C)C)c1` the value was 3.1.

The compound `Fc1cccnc1` gave a logP of 0.77.

On to `O=C(O)c1ccc2c(c1)OCCOCCOCCOCCOCCO2`, for which the logP was -0.28.

In turn, `CC(=O)c1csc2ccccc12` registered a logP of 2.78. `C[C@]12CCC(=O)C=C1C=C[C@@H]1[C@@H]2CC[C@@]2(C)[C@H]1CC[C@@]21CCC(=O)O1` returned a logP of 2.68. For `CCCCNCCC` the value was 2.12; for `c1ccc(-n2cccn2)cc1`, 2.2; for `O=[N+]([O-])c1cccc2ncccc12`, 1.86. In turn, `Clc1ccc(-c2cc(Cl)c(Cl)cc2Cl)cc1` yielded a logP of 6.67.

In turn, `O=C1CC(=O)c2ccccc21` registered a logP of 0.61.

As for `O=C(O)CSCc1ccccc1`, the logP turned out to be 2.1. The figure for `Fc1ccc(CCl)cc1` is 2.73; for `OC(c1ccccc1)C1CCCCN1` (stereo not given) it is 1.58. For `COP(=S)(OC)Oc1cc(C)c([N+](=O)[O-])c(C)c1` the value was 3.89.

What is called logP is a log measure of how a compound divides between an organic and an aqueous phase. Low values mean a more hydrophilic compound, high ones a more lipophilic compound.
